Key:
MDA-MB-231 [1] = settings: incubation time: 72 h
In short: (§1)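 MDA-MB-231 cells transfected a day earlier with siRNA against BRCA1 or non-targeting control siRNA were added at 4000 cells per well to 384-well plates holding compounds at 5 concentrations. After 72 h at 37 °C and 5% CO2, viability was read by CellTiter-Blue fluorescence. IC50 and drug sensitivity score came from logistic dose–response fits in Dotmatics Studies. The score is curve area relative to the area between 10% threshold and 100% inhibition, normalised by log of top response.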

MDA-MB-231 [2] = assay: drug sensitivity score (DSS); higher = more sensitive; extreme values may be limits of the assay; settings: incubation time: 72 h
In short: as §1

[3] = siRNA: siControl (non-targeting)

IC50 of cell viability (MDA-MB-231 [1]; siRNA: siBRCA1) [µM] | IC50 of cell viability (MDA-MB-231 [1]; [3]) [µM] | Compound | drug sensitivity score (MDA-MB-231 [2]; siRNA: siBRCA1) | drug sensitivity score (MDA-MB-231 [2]; [3])
0.00883 | 0.0102 | Cn1c(=O)n(-c2ccc(C(C)(C)C#N)cc2)c2c3cc(-c4cnc5ccccc5c4)ccc3ncc21 [NVP-BEZ235 (Dactolisib)] | 16.9 | 16.6
> 4.17 | > 4.17 | Cc1c(C(=O)Nc2ccc(N3C[C@@H](C)O[C@@H](C)C3)nc2)cccc1-c1ccc(OC(F)(F)F)cc1 [NVP-LDE225] | 0 | 0
0.835 | 0.821 | CC1(C)CCC(c2ccc(Cl)cc2)=C(CN2CCN(c3ccc(C(=O)NS(=O)(=O)c4ccc(N[C@H](CCN5CCOCC5)CSc5ccccc5)c(S(=O)(=O)C(F)(F)F)c4)cc3)CC2)C1 [Navitoclax] | 11 | 10.3
0.973 | 1.08 | COc1cccc2cc(-c3nc([C@H]4CC[C@H](C(=O)O)CC4)n4ncnc(N)c34)[nH]c12 [OSI-027] | 7.16 | 7.26
> 4.17 | > 4.17 | C[C@]1(O)C[C@@H](c2nc(-c3ccc4ccc(-c5ccccc5)nc4c3)c3c(N)nccn32)C1 [OSI-906] | 0 | 0
0.399 | 0.355 | COC1=CC(c2cc3ccccc3[nH]2)=N/C1=C\c1[nH]c(C)cc1C [Obatoclax] | 15 | 15
> 4.17 | > 4.17 | O=C(c1cc(Cc2n[nH]c(=O)c3ccccc23)ccc1F)N1CCN(C(=O)C2CC2)CC1 [Olaparib] | 0 | 0
> 4.17 | > 4.17 | CCCS(=O)(=O)Nc1ccc(F)c(C(=O)c2c[nH]c3ncc(-c4ccc(Cl)cc4)cc23)c1F [PLX4032] | 0 | 0
> 4.17 | > 4.17 | Cc1ccc(Nc2nccc(N(C)c3ccc4c(C)n(C)nc4c3)n2)cc1S(N)(=O)=O [Pazopanib] | 0 | 0
2.08 | 2.08 | c1cc(CN2CCCNCCNCCCNCC2)ccc1CN1CCCNCCNCCCNCC1 [Plerixafor] | 0 | 0
0.297 | 0.363 | Cc1ccc(C(=O)Nc2ccc(CN3CCN(C)CC3)c(C(F)(F)F)c2)cc1C#Cc1cnc2cccnn12 [Ponatinib] | 16 | 15.4
0.0922 | 0.146 | COc1cc(F)c(F)c(Nc2ccc(I)cc2F)c1NS(=O)(=O)C1(C[C@H](O)CO)CC1 [RDEA119 (Refametinib)] | 14.9 | 12.3
> 4.17 | > 4.17 | O=C(c1ccc(OCCN2CCCCC2)cc1)c1c(-c2ccc(O)cc2)sc2cc(O)ccc12 [Raloxifene] | 0 | 0
0.000904 | < 0.000833 | CO[C@H]1C[C@@H]2CC[C@@H](C)[C@@](O)(O2)C(=O)C(=O)N2CCCC[C@H]2C(=O)O[C@H]([C@H](C)C[C@@H]2CC[C@@H](O)[C@H](OC)C2)CC(=O)[C@H](C)/C=C(\C)[C@@H](O)[C@@H](OC)C(=O)[C@H](C)C[C@H](C)/C=C/C=C/C=C/1C [Rapamycin (Sirolimus)] | 15.5 | 15.3
> 4.17 | > 4.17 | N#CC[C@H](C1CCCC1)n1cc(-c2ncnc3[nH]ccc23)cn1 [Ruxolitinib] | 0 | 0
0.652 | 0.0905 | CN1CCN(CCOc2cc(OC3CCOCC3)c3c(Nc4c(Cl)ccc5c4OCO5)ncnc3c2)CC1 [Saracatinib] | 6.55 | 10.4
0.61 | 0.297 | Cn1cnc2c(F)c(Nc3ccc(Br)cc3Cl)c(C(=O)NOCCO)cc21 [Selumetinib] | 10.3 | 10.7
2.95 | 3.5 | CNC(=O)c1cc(Oc2ccc(NC(=O)Nc3ccc(Cl)c(C(F)(F)F)c3)cc2)ccn1 [Sorafenib] | 5.25 | 4.57
> 4.17 | > 4.17 | CN1CCN(c2nc(C3=C(c4c[nH]c5ccccc45)C(=O)NC3=O)c3ccccc3n2)CC1 [Sotrastaurin] | 0 | 0

Further lines, the compound ahead of its results:

Compound | IC50 of cell viability (MDA-MB-231 [1]; siRNA: siBRCA1) [µM] | IC50 of cell viability (MDA-MB-231 [1]; [3]) [µM] | drug sensitivity score (MDA-MB-231 [2]; siRNA: siBRCA1) | drug sensitivity score (MDA-MB-231 [2]; [3])
COc1nc(N)nc2c1ncn2[C@@H]1O[C@H](CO)[C@@H](O)[C@@H]1O [Nelarabine] | > 4.17 | > 4.17 | 0 | 0
Cc1cn(-c2cc(NC(=O)c3ccc(C)c(Nc4nccc(-c5cccnc5)n4)c3)cc(C(F)(F)F)c2)cn1 [Nilotinib] | > 4.17 | > 4.17 | 0 | 0
CC1(C)NC(=O)N(c2ccc([N+](=O)[O-])c(C(F)(F)F)c2)C1=O [Nilutamide] | > 4.17 | > 4.17 | 0 | 0
CO[C@@H]1[C@H](N(C)C(=O)c2ccccc2)C[C@H]2O[C@]1(C)n1c3ccccc3c3c4c(c5c6ccccc6n2c5c31)C(=O)NC4 [PKC412 (Midostaurin)] | 0.517 | 0.206 | 11 | 14.7
CC(=O)O[C@H]1C(=O)[C@@]2(C)[C@H]([C@H](OC(=O)c3ccccc3)[C@]3(O)C[C@H](OC(=O)[C@H](O)[C@@H](NC(=O)c4ccccc4)c4ccccc4)C(C)=C1C3(C)C)[C@]1(OC(C)=O)CO[C@@H]1C[C@@H]2O [Paclitaxel] | 0.0066 | 0.0112 | 29.8 | 27.2
Cc1[nH]c2ccccc2c1CCNCc1ccc(/C=C/C(=O)NO)cc1 [Panobinostat] | 0.0317 | 0.0275 | 28.7 | 29.6
OC[C@H]1O[C@@H](n2cnc3c2N=CNC[C@H]3O)C[C@@H]1O [Pentostatin] | > 4.17 | > 4.17 | 0 | 0
CC[C@@H]1C(=O)OC[C@@H]1Cc1cncn1C [Pilocarpine] | > 4.17 | > 4.17 | 0 | 0
O=C(CCBr)N1CCN(C(=O)CCBr)CC1 [Pipobroman] | > 4.17 | > 4.17 | 1.55 | 0
CO[C@H](C(=O)[C@@H](O)[C@@H](C)O)[C@@H]1Cc2cc3cc(O[C@H]4C[C@@H](O[C@@H]5C[C@@H](O)[C@H](O)[C@@H](C)O5)[C@H](O)[C@@H](C)O4)c(C)c(O)c3c(O)c2C(=O)[C@H]1O[C@H]1C[C@@H](O[C@@H]2C[C@@H](O)[C@@H](O[C@@H]3C[C@](C)(O)[C@H](O)[C@@H](C)O3)[C@@H](C)O2)[C@H](O)[C@@H](C)O1 [Plicamycin] | 0.0679 | 0.056 | 23.4 | 24.2
C[C@]12C=CC(=O)C=C1CC[C@@H]1[C@@H]2[C@@H](O)C[C@@]2(C)[C@H]1CC[C@]2(O)C(=O)CO [Prednisolone] | > 4.17 | > 4.17 | 0 | 0
C[C@]12C=CC(=O)C=C1CC[C@@H]1[C@@H]2C(=O)C[C@@]2(C)[C@H]1CC[C@]2(O)C(=O)CO [Prednisone] | > 4.17 | > 4.17 | 0 | 0
COCC1(CO)C(=O)C2CCN1CC2 (stereo unspecified) [Prima-1 Met] | > 4.17 | > 4.17 | 0 | 0
CNNCc1ccc(C(=O)NC(C)C)cc1 [Procarbazine] | > 4.17 | > 4.17 | 0 | 0
CC[C@H](CO)Nc1nc(NCc2ccccc2)c2ncn(C(C)C)c2n1 [Roscovitine] | > 4.17 | > 4.17 | 2.37 | 0
N[C@@H](CSC(c1ccccc1)(c1ccccc1)c1ccccc1)C(=O)O [S-trityl-L-cysteine] | 0.929 | 0.713 | 15.2 | 15.6
CC(C)(C)c1cnc(CSc2cnc(NC(=O)C3CCNCC3)s2)o1 [SNS-032] | 0.0531 | 0.0301 | 23.9 | 27.6
c1ccc2c(CCNc3ccc(Nc4ccncc4)cc3)c[nH]c2c1 [Serdemetan] | > 4.17 | 2.56 | 4.84 | 6.59
CN(N=O)C(=O)N[C@@H](C=O)[C@@H](O)[C@H](O)[C@H](O)CO [Streptozocin] | > 4.17 | > 4.17 | 0 | 0
CCN(CC)CCNC(=O)c1c(C)[nH]c(/C=C2\C(=O)Nc3ccc(F)cc32)c1C [Sunitinib] | 2.77 | 3.52 | 5.44 | 4.28
